Test results published in ChEMBL document CHEMBL1131731, “Synthesis and evaluation of hapalosin and analogs as MDR-reversing agents” (Bioorg Med Chem Lett, 1999).

Experiments:
[1] = target: ATP-dependent translocase ABCB1 (P-glycoprotein) (Homo sapiens, UniProt P08183); test: (§1) Ratio of IC50 of cytotoxicity to the IC50 of MDR- reversal for P388/VMDRC.04 cells; type: functional, cell-based; settings: mouse, P388/VMDRC.04 cells
[2] = Evaluated for cytotoxicity using P388/VMDRC.04 cells (a subline of P388 murine leukemia cells expressing human recombinant human P-glycoprotein) in the absence of 10 nM vincristine
[3] = target: ATP-dependent translocase ABCB1 (Homo sapiens, UniProt P08183); test: as §1; type: functional, cell-based; settings: mouse
Sequence of ATP-dependent translocase ABCB1 (P08183 whole entry): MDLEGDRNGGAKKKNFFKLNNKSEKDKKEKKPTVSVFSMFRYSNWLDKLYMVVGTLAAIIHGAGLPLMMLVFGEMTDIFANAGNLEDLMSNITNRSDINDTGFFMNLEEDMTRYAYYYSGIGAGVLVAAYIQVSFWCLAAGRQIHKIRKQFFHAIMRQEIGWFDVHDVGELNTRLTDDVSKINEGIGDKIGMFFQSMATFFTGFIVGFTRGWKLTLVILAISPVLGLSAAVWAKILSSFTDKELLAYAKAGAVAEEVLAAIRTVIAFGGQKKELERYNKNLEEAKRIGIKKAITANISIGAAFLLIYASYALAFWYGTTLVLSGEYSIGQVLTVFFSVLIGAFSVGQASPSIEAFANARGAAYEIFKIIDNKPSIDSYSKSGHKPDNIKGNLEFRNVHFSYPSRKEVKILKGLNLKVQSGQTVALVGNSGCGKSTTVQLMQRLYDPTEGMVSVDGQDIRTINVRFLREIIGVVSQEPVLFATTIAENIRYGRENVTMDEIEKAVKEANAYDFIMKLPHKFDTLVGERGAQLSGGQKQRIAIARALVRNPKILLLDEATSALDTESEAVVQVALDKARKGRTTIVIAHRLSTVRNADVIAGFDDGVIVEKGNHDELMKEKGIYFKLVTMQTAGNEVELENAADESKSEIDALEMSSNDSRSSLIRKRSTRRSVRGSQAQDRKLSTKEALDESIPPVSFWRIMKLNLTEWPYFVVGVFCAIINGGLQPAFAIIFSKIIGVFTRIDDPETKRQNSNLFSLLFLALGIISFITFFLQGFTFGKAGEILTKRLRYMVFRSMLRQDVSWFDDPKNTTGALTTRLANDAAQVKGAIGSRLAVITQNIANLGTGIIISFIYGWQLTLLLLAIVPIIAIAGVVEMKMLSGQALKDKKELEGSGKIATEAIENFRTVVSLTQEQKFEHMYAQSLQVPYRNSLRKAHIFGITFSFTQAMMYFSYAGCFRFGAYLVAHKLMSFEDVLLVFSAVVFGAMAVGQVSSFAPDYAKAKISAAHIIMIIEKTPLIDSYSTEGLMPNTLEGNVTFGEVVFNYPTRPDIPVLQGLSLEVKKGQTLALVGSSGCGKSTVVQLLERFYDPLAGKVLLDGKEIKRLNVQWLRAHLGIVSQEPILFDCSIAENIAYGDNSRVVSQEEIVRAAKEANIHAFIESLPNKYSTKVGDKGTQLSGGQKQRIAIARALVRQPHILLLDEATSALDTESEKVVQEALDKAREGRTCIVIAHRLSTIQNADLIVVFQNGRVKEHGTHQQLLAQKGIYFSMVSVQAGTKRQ

Sequence of ATP-dependent translocase ABCB1 (P-glycoprotein) (P08183 whole entry): as above

| SMILES | selectivity ratio [1] | IC50 [2] | Ratio [3] |
| --- | --- | --- | --- |
| CCCCCCC[C@@H]1CC(=O)O[C@@H](C(C)C)C(=O)N(C)[C@@H](Cc2ccccc2)[C@H](O)CC(=O)O1 | 3.8 | – | – |
| COCO[C@H]1CC(=O)O[C@H](C)[C@H](C)C(=O)OCC(=O)N(C)[C@H]1Cc1ccccc1 | > 2.3 | – | – |
| CCCCCCC[C@H]1OC(=O)C[C@@H](OCOC)[C@H](Cc2ccccc2)N(C)C(=O)[C@H](C(C)C)OC(=O)[C@H]1C | 5.7 | 34.9 µM | – |
| CCCCCCC[C@H]1OC(=O)C[C@@H](O)[C@H](Cc2ccccc2)N(C)C(=O)COC(=O)[C@H]1C | 3.8 | – | – |
| COCO[C@@H]1CC(=O)OC[C@H](C)C(=O)O[C@@H](C(C)C)C(=O)N(C)[C@H]1Cc1ccccc1 | > 15.9 | – | – |
| CCCCCCC[C@H]1OC(=O)C[C@H](OCOC)[C@H](Cc2ccccc2)N(C)C(=O)C(C)(C)OC(=O)[C@H]1C | 3.5 | – | – |
| CCCCCCC[C@H]1OC(=O)C[C@H](O)[C@H](Cc2ccccc2)N(C)C(=O)C(C)(C)OC(=O)[C@H]1C | 6.6 | – | – |
| CCCCCCC[C@H]1OC(=O)C[C@H](OCOC)[C@H](Cc2ccccc2)N(C)C(=O)[C@H](C(C)C)OC(=O)[C@H]1C (stereo in doubt; 14) | 7.5 | – | – |
| CC(C)[C@@H]1OC(=O)[C@@H](C)[C@@H](C)OC(=O)C[C@@H](O)[C@H](Cc2ccccc2)N(C)C1=O | > 9 | – | – |
| COC(=O)C[C@@H](O)[C@H](Cc1ccccc1)N(C)C(=O)OCc1ccccc1 | 5.2 | – | – |
| CCCC[C@H]1OC(=O)C[C@H](O)[C@H](Cc2ccccc2)N(C)C(=O)COC(=O)[C@H]1C | > 4.4 | – | – |
| COCO[C@@H]1CC(=O)O[C@H](C)[C@H](C)C(=O)O[C@@H](C(C)C)C(=O)N(C)[C@H]1Cc1ccccc1 | > 10 | – | – |
| CCCCCCC[C@@H](O)[C@H](C)C(=O)O[C@H](C(=O)OC)C(C)C | > 5.2 | – | – |
| CCCCCCC[C@@H]1CC(=O)O[C@@H](C(C)C)C(=O)N(C)[C@@H](Cc2ccccc2)[C@H](OCOC)CC(=O)O1 | 5.7 | – | – |
| CC(C)[C@@H]1OC(=O)[C@@H](C)COC(=O)C[C@@H](O)[C@H](Cc2ccccc2)N(C)C1=O | > 7.5 | > 100 µM | – |
| CCCCCCC[C@@H](O)[C@H](C)C(=O)OC | – | > 100 µM | – |
| CCCC[C@H]1OC(=O)C[C@H](OCOC)[C@H](Cc2ccccc2)N(C)C(=O)COC(=O)[C@H]1C | > 8.5 | > 100 µM | – |
| CCCCCCC[C@H]1OC(=O)C[C@H](O)[C@H](Cc2ccccc2)N(C)C(=O)[C@H](C(C)C)OC(=O)[C@H]1C [listing 1 of 2 here] | 5.4 | – | – |
| CCCCCCC[C@H]1OC(=O)C[C@H](OCOC)[C@H](Cc2ccccc2)N(C)C(=O)[C@H](C(C)C)OC(=O)[C@H]1C (stereo in doubt; 22) | – | – | 6.2 |
| CCCCCCC[C@H]1OC(=O)C[C@H](O)[C@H](Cc2ccccc2)N(C)C(=O)[C@H](C(C)C)OC(=O)[C@H]1C [listing 2 of 2 here] | 7.4 | – | – |
| CCCCCCC[C@H]1OC(=O)C[C@@H](O)[C@H](Cc2ccccc2)N(C)C(=O)[C@H](C(C)C)OC(=O)[C@H]1C [HAPALOSIN] | 3 | – | – |
| CCCCCCC[C@H]1OC(=O)C[C@@H](OCOC)[C@H](Cc2ccccc2)N(C)C(=O)COC(=O)[C@H]1C | 6.5 | – | – |
| CCCCCCC[C@H]1OC(=O)C[C@@H](OCOC)[C@H](Cc2ccccc2)N(C)C(=O)[C@H](C)OC(=O)[C@H]1C | 3.2 | – | – |
| CCCCCCC[C@H]1OC(=O)CC[C@H](Cc2ccccc2)N(C)C(=O)[C@H](C(C)C)OC(=O)[C@H]1C | 5.6 | – | – |
| COCO[C@H](CC(=O)OC)[C@H](Cc1ccccc1)N(C)C(=O)OCc1ccccc1 | 5.7 | – | – |
| CCCCCCC[C@H]1OC(=O)C[C@@H](O)[C@H](Cc2ccccc2)N(C)C(=O)[C@H](C)OC(=O)[C@H]1C | 4.3 | – | – |
